Assay results as given in US5908828A, “Synthetic peptide derivatives and the salts thereof” (Hoechst Japan Limited, priority 1994, dated 1999).
Bridge positions count the residues as written; N and C are the ends. Ends that are not written are not given here. I, II: the chains in the order shown.

Tested on: ALPase activity in MC3T3-E1 cells promoted by rh-BMP-2
Experiment: Assay of BMP inhibiting activity (BMP-2 antagonist-like activity): ALPase activity in cultured MC3T3-E1 cells
Format: cell-based, mouse
Conditions: for ALPase activity: MC3T3-E1 cells, 2 days
Protocol: BMP-2 antagonist-like activity of the present synthetic peptide derivatives was assayed by way of cultured MC3T3-E1 cells which were established from mouse calvaria having osteoblast-like property, by Kodama et al. (Kodama, H. et al. (1981) Jpn. J Oral. Biol., vol.23, p.899). The cultured MC3T3-E1 cells were prepared according to Takuwa et al. (Takuwa, Y. et al., (1991) Biochem.
Biophys. Res. Comuni., vol. […] ALPase is often used as an indicator enzyme for differentiation and maturity of osteoblasts and chondrocytes (Pfeilschifter, J., et al., Endocrinology (1987), vol. 121, p212-218; Rodan, G. A., et al., calcium regulating hormones and bone metabolism, Elsevir Science Publishers B.V., (1992), p 183-196).

Q: Which results are given for “synthetic peptide derivative: Fragment P1 (SEQ ID NO:1, N-terminal acetyl-Cys) joined to Fragment P2 (SEQ ID NO:2) through a 4-(N-maleimidomethyl)cyclohexane-1-carbonyl linker (chain 1 {CH2CO}-CDFSDVGWNDWIVAPPGY; chain 2 AIVQTLVNSVNSKIPKA; thioether I:N-II:N via 4‑(N-maleimidomethyl)cyclohexane‑1‑carbonyl; not fully specified (N-terminus, C-terminus, bridges))”?
A: inhibition of rh-BMP-2-promoted ALPase activity in MC3T3-E1 cells (2×10^-9 to 2×10^-6 M, result in words): inhibited ALPase activity in MC3T3-E1 cells which were promoted by rh-BMP-2 with 2×10^-9 to 2×10^-6 M dose dependently; ALPase activity (rh-BMP-2 5 ng/ml + synthetic peptide derivative 2 × 10^-7 M, n = 4): 302 ± 54 pmol/min; ALPase activity (rh-BMP-2 5 ng/ml + synthetic peptide derivative 2 × 10^-8 M, n = 4): 486 ± 36 pmol/min; ALPase activity (rh-BMP-2 5 ng/ml + synthetic peptide derivative 2 × 10^-9 M, n = 4): 632 ± 71 pmol/min; ALPase activity (rh-BMP-2 5 ng/ml + synthetic peptide derivative 2 × 10^-10 M, n = 4): 876 ± 120 pmol/min; ALPase activity (rh-BMP-2 (b ng/ml) + synthetic peptide derivative 2 × 10^-6 M, n = 1): 269 pmol/min
